Experimental data taken from ChEMBL document CHEMBL1201862, “PubChem BioAssay data set” (2004).
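Briefly, cells in 96-well plates were exposed to five compound concentrations for 48 h, and endpoints were estimated by linear interpolation. GI50: concentration for 50% inhibition of growth.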 Activity calls are given as the source filed them. Cut-off read from the data, not from the text of the source: active = GI50 up to about 1.1 µM and inactive = higher.

Assays:
Assay in all cases: growth of human tumour cells (NCI), 48 h
NCI-H522 = system: NCI-H522
NCI-H226 = system: NCI-H226
HT-29 = system: HT-29
A498 = system: A498
OVCAR-5 = system: OVCAR-5
CCRF-CEM = system: CCRF-CEM
KM12 = system: KM12
RXF 393 = system: RXF 393
SK-MEL-5 = system: SK-MEL-5
HCT-116 = system: HCT-116
SK-MEL-28 = system: SK-MEL-28
SF-539 = system: SF-539
UACC-62 = system: UACC-62
SNB-19 = system: SNB-19
HOP-92 = system: HOP-92
OVCAR-4 = system: OVCAR-4
A549 = system: A549
LOX IMVI = system: LOX IMVI
K562 = system: K562
M14 = system: M14

Row | SMILES | GI50 (NCI-H522) | GI50 (NCI-H226) | GI50 (HT-29) | GI50 (A498) | GI50 (OVCAR-5) | GI50 (CCRF-CEM) | GI50 (KM12) | GI50 (RXF 393) | GI50 (SK-MEL-5) | GI50 (HCT-116) | GI50 (SK-MEL-28) | GI50 (SF-539) | GI50 (UACC-62) | GI50 (SNB-19) | GI50 (HOP-92) | GI50 (OVCAR-4) | GI50 (A549) | GI50 (LOX IMVI) | GI50 (K562) | GI50 (M14)
1 | CCCC[S+]([O-])CC(CO)NC(=O)/C=C/c1c(C)[nH]c(=O)[nH]c1=O (configuration not stated) | 5.77 µM (inactive) | 11.7 µM (inactive) | 14.8 µM (inactive) | 7.8 µM (inactive) | 14.7 µM (inactive) | 6.65 µM (inactive) | 5.64 µM (inactive) | 11 µM (inactive) | 4.3 µM (inactive) | 10 µM (inactive) | 6.5 µM (inactive) | 7.38 µM (inactive) | 7.52 µM (inactive) | 4.89 µM (inactive) | 11.8 µM (inactive) | 0.203 µM (active) | 10.8 µM (inactive) | 7.62 µM (inactive) | 8.97 µM (inactive) | –
2 | O=C(Nc1cccc([N+](=O)[O-])c1)C(=O)C(C(=O)c1ccccc1F)C1OC(=O)C2C=CC=CC21 (configuration not stated) | 18.9 µM (inactive) | 13.4 µM (inactive) | 41.6 µM (inactive) | 96.6 µM (inactive) | 81.7 µM (inactive) | 27.3 µM (inactive) | 27.3 µM (inactive) | 18.5 µM (inactive) | 73.1 µM (inactive) | 19.4 µM (inactive) | 30.3 µM (inactive) | 24 µM (inactive) | 28 µM (inactive) | 29.9 µM (inactive) | > 100 µM (inactive) | 47.2 µM (inactive) | 37.5 µM (inactive) | 21.1 µM (inactive) | 31.8 µM (inactive) | 38 µM (inactive)
3 | S=c1sc2c(s1)SC(c1ccccc1)CS2 (configuration not stated) | > 100 µM (inactive) | > 100 µM (inactive) | > 100 µM (inactive) | > 100 µM (inactive) | > 100 µM (inactive) | > 100 µM (inactive) | > 100 µM (inactive) | 25.1 µM (inactive) | > 100 µM (inactive) | > 100 µM (inactive) | > 100 µM (inactive) | > 100 µM (inactive) | > 100 µM (inactive) | > 100 µM (inactive) | > 64.4 µM (inactive) | 20.4 µM (inactive) | > 100 µM (inactive) | > 86.3 µM (inactive) | > 100 µM (inactive) | –
4 | COc1cc(/N=N\c2cccc(S(=O)(=O)O)c2)ccc1/N=N\c1ccc(/C=C/c2ccc(-n3on3-c3ccc(/C=C/c4ccc(/N=N/c5ccc(/N=N\c6cccc(S(=O)(=O)O)c6)cc5OC)cc4S(=O)(=O)O)c(S(=O)(=O)O)c3)cc2S(=O)(=O)O)c(S(=O)(=O)O)c1 | > 100 µM (inactive) | > 100 µM (inactive) | > 100 µM (inactive) | > 100 µM (inactive) | > 100 µM (inactive) | > 100 µM (inactive) | > 100 µM (inactive) | > 100 µM (inactive) | > 100 µM (inactive) | > 100 µM (inactive) | > 100 µM (inactive) | > 100 µM (inactive) | > 100 µM (inactive) | > 100 µM (inactive) | > 86.1 µM (inactive) | > 100 µM (inactive) | > 100 µM (inactive) | > 100 µM (inactive) | > 100 µM (inactive) | –
